Assay results reported in PMC11992225, “Antibacterial compounds against non-growing and intracellular bacteria” (npj Antimicrobials and Resistance, 2025).
In brackets after ≈: the same amount, converted by molar mass. Several values for one entry are separate records, joined by “and”; a condition that tells them apart may be missing. Identical values can stand only once. Like-named read-outs stand apart in the source and are kept apart here.

How the values were obtained:
S. aureus DSM2569 = assay: MIC, standard microdilution assay, growing S. aureus; type: cell-based, Staphylococcus aureus; settings: S. aureus; CA-MHB pH 7.4; read-out: MIC (μM) CA-MHB
In short: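 Each strain was exposed to serially diluted compound in broth, in triplicate. The media were TSB for Shigella; CA-MHB at pH 7.4 (HEPES 40 mM) for S. aureus, P. aeruginosa and UPEC; and, for UPEC only, low-pH LPM (pH 5.5, 30 mM MES).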

non-growing UPEC CFT073 [1] = assay: Dilution-regrowth assay (screen, hit validation, dose-response) on stationary-phase UPEC; type: cell-based, Escherichia coli; settings: for Regrowth: OD600 after dilution into drug-free medium (mean): OD600 at 6h or 8h
In short: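 Regrowth (OD600 after 6 h, 37 °C) of diluted non-growing CFT073, following 24 h compound treatment of 24 h stationary cultures, defines activity relative to untreated control. Screen at 20 µM, validation at 20, 10, 5 µM (duplicates), dose–response in three biological replicates fitted by five-parameter logistic.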

non-growing UPEC CFT073 [2] = assay: Dose-dependent killing analysis (CFU spot-plating) of stationary-phase UPEC; type: cell-based, Escherichia coli
In short: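 Killing assessed by CFU counts: overnight 37 °C LB agar spot plates (10 μl drops of 10-fold PBS dilutions) scored at the lowest dilution with distinct colonies. Samples were compound-treated non-growing UPEC CFT073, 200 μl per well. Performed as three biological replicates.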

[3] = system: non-growing S. aureus DSM2569; assay: Dose-dependent killing analysis (CFU spot-plating) of stationary-phase S. aureus; type: cell-based, Staphylococcus aureus; settings: S. aureus; for Killing: average Δlog10(CFU/ml): vs 9,097 before treatment
In short: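 Survival was scored as CFU after overnight growth at 37 °C on LB agar, using spots from 10-fold PBS dilutions of treated cultures. Non-growing S. aureus DSM2569 had been exposed to compound for 24 h in 1:4 CA-MHB, pH 7.4. Three biological replicates were run.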

[4] = E. coli in 1:4 CA-MHB (pH 7.4), concentration 0.25
[5] = E. coli in 1:4 CA-MHB (pH 7.4), concentration 0.5
[6] = E. coli in 1:4 CA-MHB (pH 7.4), concentration 1
[7] = E. coli in 1:4 CA-MHB (pH 7.4), concentration 2.5
[8] = E. coli in 1:4 CA-MHB (pH 7.4), concentration 5
[9] = E. coli in 1:4 CA-MHB (pH 7.4), concentration 10
[10] = E. coli in LPM (pH 5.5), concentration 0.25
[11] = E. coli in LPM (pH 5.5), concentration 0.5
[12] = E. coli in LPM (pH 5.5), concentration 1
[13] = E. coli in LPM (pH 5.5), concentration 2.5
[14] = E. coli in LPM (pH 5.5), concentration 5
[15] = E. coli in LPM (pH 5.5), concentration 10

For `CO[C@H]1/C=C/O[C@@]2(C)Oc3c(C)c(O)c4c(O)c(c(/C=N/N=C/N5CCCCC5)c(O)c4c3C2=O)NC(=O)/C(C)=C\C=C\[C@H](C)[C@H](O)[C@@H](C)[C@@H](O)[C@@H](C)[C@H](OC(C)=O)[C@@H]1C` [FCE-22250], the MIC (S. aureus DSM2569) was 0.0125 µM (≈ 0.0104 µg/mL), the “Regrowth: OD600 after dilution into drug-free medium (mean)” value (non-growing UPEC CFT073 [1]; [4]) was 0.613 and the “Regrowth: OD600 after dilution into drug-free medium (mean)” value (non-growing UPEC CFT073 [1]; [5]) was 0.587. The “Regrowth: OD600 after dilution into drug-free medium (mean)” value (non-growing UPEC CFT073 [1]; [6]) was 0.569, the “Regrowth: OD600 after dilution into drug-free medium (mean)” value (non-growing UPEC CFT073 [1]; [7]) was 0.549 and the “Regrowth: OD600 after dilution into drug-free medium (mean)” value (non-growing UPEC CFT073 [1]; [8]) was 0.529. The “Regrowth: OD600 after dilution into drug-free medium (mean)” value (non-growing UPEC CFT073 [1]; [9]) was 0.515, the “Regrowth: OD600 after dilution into drug-free medium (mean)” value (non-growing UPEC CFT073 [1]; E. coli in 1:4 CA-MHB (pH 7.4), concentration 30) was 0.347 and the “Regrowth: OD600 after dilution into drug-free medium (mean)” value (non-growing UPEC CFT073 [1]; [10]) was 0.566. For the same compound, the “Regrowth: OD600 after dilution into drug-free medium (mean)” value (non-growing UPEC CFT073 [1]; [11]) was 0.535, the “Regrowth: OD600 after dilution into drug-free medium (mean)” value (non-growing UPEC CFT073 [1]; [12]) was 0.500 and the “Regrowth: OD600 after dilution into drug-free medium (mean)” value (non-growing UPEC CFT073 [1]; [13]) was 0.418. The “Regrowth: OD600 after dilution into drug-free medium (mean)” value (non-growing UPEC CFT073 [1]; [14]) was 0.299, the “Regrowth: OD600 after dilution into drug-free medium (mean)” value (non-growing UPEC CFT073 [1]; [15]) was 0.206 and the “Regrowth: OD600 after dilution into drug-free medium (mean)” value (non-growing UPEC CFT073 [1]; E. coli in LPM (pH 5.5), concentration 30) was 0.134. For the same compound, the EC50 (non-growing UPEC CFT073 [1]; E. coli, LPM pH 5.5, regrowth delay of non-growing bacteria, 24 h treatment, OD600 6 h after 2500-fold dilution, read-out: EC50) was 3.97 µM, the EC50 (non-growing UPEC CFT073 [1]; LPM pH 5.5 (red curve), medium assigned by comparison with Dataset 1, read-out: EC50 (regrowth inhibition curve, Fig. S4)) was 3.45 µM and the “log10(CFU/ml) after treatment, single replicates” value (“log10(CFU/ml) after treatment” for short) (non-growing UPEC CFT073 [2]; [4]) was 9.301 log10(CFU/ml) and 8.845 log10(CFU/ml) and 8.602 log10(CFU/ml). For the same compound, the “Killing: average Δlog10(CFU/ml)” value (non-growing UPEC CFT073 [2]; E. coli in 1:4 CA-MHB (pH 7.4), concentration 0.25, vs 8.977 before treatment) was 0.061 log10(CFU/ml), the “log10(CFU/ml) after treatment” value (non-growing UPEC CFT073 [2]; [5]) was 9.505 log10(CFU/ml) and 9.176 log10(CFU/ml) and 8.301 log10(CFU/ml) and the “Killing: average Δlog10(CFU/ml)” value (non-growing UPEC CFT073 [2]; E. coli in 1:4 CA-MHB (pH 7.4), concentration 0.5, vs 8.977 before treatment) was -0.017 log10(CFU/ml). For the same compound, the “log10(CFU/ml) after treatment” value (non-growing UPEC CFT073 [2]; [6]) was 9.556 log10(CFU/ml) and 9.114 log10(CFU/ml) and 8.431 log10(CFU/ml), the “Killing: average Δlog10(CFU/ml)” value (non-growing UPEC CFT073 [2]; E. coli in 1:4 CA-MHB (pH 7.4), concentration 1, vs 8.977 before treatment) was -0.057 log10(CFU/ml) and the “log10(CFU/ml) after treatment” value (non-growing UPEC CFT073 [2]; [7]) was 9.415 log10(CFU/ml) and 8.954 log10(CFU/ml) and 8.342 log10(CFU/ml). For the same compound, the “Killing: average Δlog10(CFU/ml)” value (non-growing UPEC CFT073 [2]; E. coli in 1:4 CA-MHB (pH 7.4), concentration 2.5, vs 8.977 before treatment) was 0.073 log10(CFU/ml), the “log10(CFU/ml) after treatment” value (non-growing UPEC CFT073 [2]; [8]) was 9.477 log10(CFU/ml) and 8.903 log10(CFU/ml) and 8.431 log10(CFU/ml) and the “Killing: average Δlog10(CFU/ml)” value (non-growing UPEC CFT073 [2]; E. coli in 1:4 CA-MHB (pH 7.4), concentration 5, vs 8.977 before treatment) was 0.040 log10(CFU/ml). For the same compound, the “log10(CFU/ml) after treatment” value (non-growing UPEC CFT073 [2]; [9]) was 9.519 log10(CFU/ml) and 8.845 log10(CFU/ml) and 8.778 log10(CFU/ml), the “Killing: average Δlog10(CFU/ml)” value (non-growing UPEC CFT073 [2]; E. coli in 1:4 CA-MHB (pH 7.4), concentration 10, vs 8.977 before treatment) was -0.070 log10(CFU/ml) and the “log10(CFU/ml) after treatment” value (non-growing UPEC CFT073 [2]; [10]) was 7.041 log10(CFU/ml) and 7.176 log10(CFU/ml) and 8.079 log10(CFU/ml). The “Killing: average Δlog10(CFU/ml)” value (non-growing UPEC CFT073 [2]; E. coli in LPM (pH 5.5), concentration 0.25, vs 7.350 before treatment) was -0.082 log10(CFU/ml), the “log10(CFU/ml) after treatment” value (non-growing UPEC CFT073 [2]; [11]) was 6.845 log10(CFU/ml) and 6.778 log10(CFU/ml) and 8.000 log10(CFU/ml) and the “Killing: average Δlog10(CFU/ml)” value (non-growing UPEC CFT073 [2]; E. coli in LPM (pH 5.5), concentration 0.5, vs 7.350 before treatment) was 0.143 log10(CFU/ml). The “log10(CFU/ml) after treatment” value (non-growing UPEC CFT073 [2]; [12]) was 7.176 log10(CFU/ml) and 7.255 log10(CFU/ml) and 8.000 log10(CFU/ml), the “Killing: average Δlog10(CFU/ml)” value (non-growing UPEC CFT073 [2]; E. coli in LPM (pH 5.5), concentration 1, vs 7.350 before treatment) was -0.127 log10(CFU/ml) and the “log10(CFU/ml) after treatment” value (non-growing UPEC CFT073 [2]; [13]) was 6.845 log10(CFU/ml) and 6.954 log10(CFU/ml) and 7.845 log10(CFU/ml). The “Killing: average Δlog10(CFU/ml)” value (non-growing UPEC CFT073 [2]; E. coli in LPM (pH 5.5), concentration 2.5, vs 7.350 before treatment) was 0.136 log10(CFU/ml), the “log10(CFU/ml) after treatment” value (non-growing UPEC CFT073 [2]; [14]) was 6.778 log10(CFU/ml) and 6.845 log10(CFU/ml) and 7.785 log10(CFU/ml) and the “Killing: average Δlog10(CFU/ml)” value (non-growing UPEC CFT073 [2]; E. coli in LPM (pH 5.5), concentration 5, vs 7.350 before treatment) was 0.214 log10(CFU/ml). The “log10(CFU/ml) after treatment” value (non-growing UPEC CFT073 [2]; [15]) was 6.954 log10(CFU/ml) (2×) and 7.531 log10(CFU/ml), the “Killing: average Δlog10(CFU/ml)” value (non-growing UPEC CFT073 [2]; E. coli in LPM (pH 5.5), concentration 10, vs 7.350 before treatment) was 0.204 log10(CFU/ml) and the “log10(CFU/ml) after treatment” value ([3]; concentration 0.1) was 9.505 log10(CFU/ml) and 8.903 log10(CFU/ml) and 9.033 log10(CFU/ml). For the same compound, the “Killing: average Δlog10(CFU/ml)” value ([3]; concentration 0.1) was -0.050 log10(CFU/ml), the “log10(CFU/ml) after treatment” value ([3]; concentration 0.5) was 9.107 log10(CFU/ml) and 9.017 log10(CFU/ml) and 8.505 log10(CFU/ml) and the “Killing: average Δlog10(CFU/ml)” value ([3]; concentration 0.5) was 0.221 log10(CFU/ml). The “log10(CFU/ml) after treatment” value ([3]; concentration 2.5) was 8.929 log10(CFU/ml) and 8.940 log10(CFU/ml) and 8.806 log10(CFU/ml), the “Killing: average Δlog10(CFU/ml)” value ([3]; concentration 2.5) was 0.205 log10(CFU/ml) and the “log10(CFU/ml) after treatment” value ([3]; concentration 10) was 8.973 log10(CFU/ml) and 9.017 log10(CFU/ml) and 8.944 log10(CFU/ml). The “Killing: average Δlog10(CFU/ml)” value ([3]; concentration 10) was 0.119 log10(CFU/ml).
